According to patent US20250032437A1, “D-Serine Inhibits Neuroinflammation Due To A Brain Injury” (Florida State University Research Foundation, Inc., priority 2019, published 2025):

Test system: entorhinal cortex (neurons, astrocytes, microglia) of animals made epileptic with a chemo-convulsant
Experiment: D-serine injected into the entorhinal area in an animal model of Temporal Lobe Epilepsy; neurons, astrocytes and microglia identified with fluorescent-tagged antibodies
Type: in vivo
Procedure: These cells cause inflammation in brain tissue by releasing cytokines. These neuroinflammatory cell types were identified using fluorescent-tagged antibodies first in control animals and then in animals that were made epileptic using a well-established animal model of Temporal Lobe Epilepsy. […] In a separate sample of animals, D-serine was injected into the entorhinal area prior to making them epileptic with a chemo-convulsant and immediately after administration of the chemo-convulsant.

[1] = D-serine injected into the entorhinal area, FIG. 2 vs FIG. 3

## N[C@H](CO)C(=O)O [D-serine]
D-serine injected into the entorhinal area prior to and immediately after administration of the chemo-convulsant
  development of epilepsy after chemo-convulsant: did not become epileptic
[1]
  astrocytes in the entorhinal region (GFAP): fewer astrocytes
  neurons in the entorhinal cortex (NeuN) compared with the epileptic animals: significant rescue of neurons
D-serine injected into the entorhinal area, FIG. 7 vs FIG. 8
  infiltration of microglia to the entorhinal region (OX42): significantly reduced
